The values below come from patent US20250026719A1, “NOVEL COMPOUNDS AS INHIBITORS OF PCSK9” (SHENGKE PHARMACEUTICALS (JIANGSU) LTD., priority 2021, published 2025).

In one data set the test system is PCSK9. In words: PCSK9 ELISA of HepG2 culture medium. The note with it: 24 hr. It counts as cell-based. The protocol: (§1) HepG2 cells (ATCC, Cat.:HB-8065) were maintained in Growth medium—Eagle's Minimum Essential Medium (Corning, 10-010-CVR), 10% FBS (Gibco, 10099-141), Penicillin (100 units/mL), Streptomycin (100 μg/mL). HepG2 cells were incubated at 37° C., 5% CO2. HepG2 cells were plated in flat bottom 96-well plates (Corning, 3599) at 40,000 cells/well in 100 μL of growth media. After an overnight incubation, the culture media were changed to serum-free OptiMEM media(Gibco, 31985-062), 90 μL/well. Vehicle, PF-06446846 hydrochloride, berberine, or test compound was added to the culture media, 10 μL/well. After 24 hr medium was harvested, and 10 μL of the medium were used for the PCSK9 ELISA(R&D Systems, SPC900).

Data set [1] can be described thus: Metabolic stability in rat liver microsomes. The note with it: rat liver microsomes 0.5 mg/mL, 37° C., read-out: Metabolic stability T1/2 (minute) Rat. It counts as in vitro ADME. The protocol: (§2) Metabolic Stability of Test Compounds in Incubation with Human, and Rat Liver Microsomes Study Details: • Test concentration: 1 μM; • Reference compound: Ketanserin; • Test systems: human, and rat liver microsomes (from Corning or Xenotech) with final liver microsomal protein concentration of 0.5 mg/mL; • Incubation condition: 0, 5, 15, 30, and 45 min at 37° C.; • Sample size: Duplicates (n=2); • Bioanalytical method: LC-MS/MS;
(§3) [formula] [formula] [formula] • where QH is the hepatic blood flow (mL/min/kg), fub is the fraction of unbound drug in plasma which is assumed to be 1, Clint is the in vitro intrinsic clearance.

Another data set relates to HepG2 cells. In words: HepG2 cell viability assay (CellTiter-Glo, cellular ATP). It counts as cell-based. The settings on record: 24 hr, serum-free OptiMEM. As for the experimental part:
as §1, with “black clear” for “flat”, “3063)” for “3599)”, “media (Gibco,” for “media(Gibco,”, “cellular ATP levels” for “medium was harvested, and 10 μL of the medium”, “measured using CellTiter-Glo® 2.0 Assay (Promega, G9242).” for “used for the PCSK9 ELISA(R&D Systems, SPC900).”
Background: Cellular ATP, detected with luciferase, serves as a proxy for viable cell number.

The subject of another data set is PCSK9 mRNA. In words: RT-Q-PCR analysis of PCSK9 mRNA in HepG2 cells. It counts as cell-based. The note with it: Homo sapiens, 24 h, normalized to GAPDH, read-out: HepG2 Q-PCR PCSK9 mRNA level decrease (10 μM). The protocol: HepG2 cells (ATCC, Cat.:HB-8065) were maintained in Growth medium—Eagle's Minimum Essential Medium (Corning, 10-010-CVR), 10% FBS (Gibco, 10099-141), Penicillin (100 units/mL), Streptomycin (100 μg/mL). HepG2 cells were incubated at 37° C., 5% CO2.
Cells were cultured in growth medium as described above and treated with the vehicle, Berberine or test compound for 24 h. The RNA was extracted using the Total RNA mini Kit (Tiangen, Beijing, China) according to the manufacturer's instructions. Reverse transcription was carried out using the High-Capacity cDNA reverse transcription kit (Thermo Fisher Scientific). Quantitative real-time PCR was performed using a reaction mixture containing cDNA, specific primers [PCSK9, 5′-[…]-3′ (forward) and 5′-[…]-3′ (reverse); GAPDH, 5′-[…]-3′ (forward) and 5′-[…]-3′ (reverse)] and Maxima SYBR Green/ROX qPCR Master Mix(Thermo Fisher Scientific). PCR amplification was carried out in a Real-Time PCR System. The real-time PCR conditions were 37° C. 10 min; 95° C. 10 min; 95° C. 15 s, 60° C. 30 s, 72° C. 30 s, 40 cycle. The amount of mRNA was normalized to the GAPDH level in the same samples.

The nature of data set [2]: Metabolic stability in human liver microsomes. Type of data set: in vitro ADME. The settings on record: human liver microsomes 0.5 mg/mL, 37° C., read-out: Metabolic stability T1/2 (minute) Human. The protocol:
as §2, §3
(Microsomes from liver hold many membrane-bound enzymes, among them those of drug oxidation.)

Turning to `CC(C)NC(=O)CN(CC(=O)Nc1ccc(Oc2ccc(C(F)F)cc2)cc1)C(=O)c1cc2cccc(C#N)c2[nH]1` [Compound 201-329], the “HepG2 PCSK9 ELISA (10 μM) % inhibition” value with PCSK9 was 91%. Moreover, the values for the half-life at 1 μM in data set [1] and in data set [2] were 17.5 min and 14.3 min, respectively. Moreover, in the data set with HepG2 cells, the “HepG2 Survival assay (10 μM)” value stood at 106%. For the same compound, in the data set on PCSK9 mRNA, the inhibition at 10 µM stood at 73%.
For `CC(C)NC(=O)CN(CC(=O)Nc1ccc(Oc2cc(F)c(F)c(F)c2)cc1)C(=O)c1cc2cccc(F)c2[nH]1` [Compound 201-331], in that order: 87%, 41 min, 20.6 min, 103% and 92%.
For `CC(C)NC(=O)CN(CC(=O)Nc1ccc(Oc2cc(F)c(F)c(F)c2)cc1)C(=O)c1cc2cccc(C#N)c2[nH]1` [Compound 201-332], in that order: 89%, 38.7 min, 22.4 min, 99% and 85%.
